Measured values published in BindingDB's records for patent US10202381 (Celgene Quanticel Research Inc, 2019).

Biological target: T1, Lysine-specific demethylase 4C (Homo sapiens, UniProt Q9H3R0)
T1 sequence (Q9H3R0 whole entry): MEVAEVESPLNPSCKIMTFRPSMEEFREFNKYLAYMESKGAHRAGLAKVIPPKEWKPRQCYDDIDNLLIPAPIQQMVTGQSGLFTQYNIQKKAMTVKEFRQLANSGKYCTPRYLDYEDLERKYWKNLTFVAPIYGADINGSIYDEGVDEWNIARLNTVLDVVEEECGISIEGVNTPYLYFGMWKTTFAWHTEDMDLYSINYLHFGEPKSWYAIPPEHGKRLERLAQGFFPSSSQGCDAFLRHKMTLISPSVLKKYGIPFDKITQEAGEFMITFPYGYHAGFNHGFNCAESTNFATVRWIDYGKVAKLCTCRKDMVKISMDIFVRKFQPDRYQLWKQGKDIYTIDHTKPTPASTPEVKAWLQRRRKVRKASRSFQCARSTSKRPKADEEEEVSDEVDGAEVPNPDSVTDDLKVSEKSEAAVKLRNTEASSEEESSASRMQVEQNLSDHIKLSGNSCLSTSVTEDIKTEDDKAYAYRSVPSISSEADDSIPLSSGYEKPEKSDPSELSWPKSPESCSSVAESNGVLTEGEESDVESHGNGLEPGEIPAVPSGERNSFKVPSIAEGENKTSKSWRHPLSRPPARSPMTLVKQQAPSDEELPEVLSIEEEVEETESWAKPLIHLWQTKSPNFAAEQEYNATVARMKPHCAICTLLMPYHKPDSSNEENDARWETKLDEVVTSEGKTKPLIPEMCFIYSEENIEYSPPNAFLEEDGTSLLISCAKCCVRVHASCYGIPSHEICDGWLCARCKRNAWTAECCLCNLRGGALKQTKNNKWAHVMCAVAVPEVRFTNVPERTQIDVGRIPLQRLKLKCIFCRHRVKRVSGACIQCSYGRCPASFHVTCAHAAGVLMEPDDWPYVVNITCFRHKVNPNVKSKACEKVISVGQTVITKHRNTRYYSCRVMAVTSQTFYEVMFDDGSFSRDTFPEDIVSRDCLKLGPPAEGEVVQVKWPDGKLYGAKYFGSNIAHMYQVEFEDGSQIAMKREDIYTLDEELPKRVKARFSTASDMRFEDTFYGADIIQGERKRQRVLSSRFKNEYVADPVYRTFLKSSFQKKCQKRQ
Test: JMJD2C Assay
Protocol: The ability of test compounds to inhibit the activity of JMJD2C was determined in 384-well plate-format under the following reaction conditions: 0.3 nM JMJD2C, 300 nM H3K9me3-biotin labeled peptide (Anaspec cat #64360), 2 μM alpha-ketoglutaric acid in assay buffer of 50 mM HEPES, pH 7.3, 0.005% Brij35, 0.5 mM TCEP, 0.2 mg/ml BSA, 50 μM sodium L-ascorbate, and 2 μM ammonium iron(II) sulfate. Reaction product was determined quantitatively by TR-FRET after the addition of detection reagent Phycolink Streptavidin-allophycocyanin (Prozyme) and Europium-anti-di-methylated histone H3 lysine 9 (H3K9me2) antibody (PerkinElmer) in the presence of 5 mM EDTA in LANCE detection buffer (PerkinElmer) at a final concentration of 50 nM and 1 nM, respectively.The assay reaction was initiated by the following: 2 μl of the mixture of 900 nM H3K9me3-biotin labeled peptide and 6 μM alpha-ketoglutaric acid with 2 μl of 11-point serial diluted inhibitor in 3% DMSO were added to each well of the plate, followed by the addition of 2 μl of 0.9 nM JMJD2C to initiate the reaction. […] Plates were read by EnVisionMultilabel Reader in TR-FRET mode (excitation at 320 nm, emission at 615 nm and 665 nm) after 1 hr incubation at room temperature. A ratio was calculated (665/615) for each well and fitted to determine inhibition constant (IC50).

IC50 | Structure (SMILES)
< 100 nM | Cc1cc(Oc2nc(O)c3ccncc3n2)ccc1N(C)c1cc(N2CCN(C)CC2)ccc1C [US10202381, Example 147]
< 100 nM | COc1ccc(N2CCN(C)CC2)cc1N(C)c1ccc(Oc2nc(O)c3ccncc3n2)cc1C [US10202381, Example 145]
